Assay results reported in patent publication US20210252022A1, “COMPOSITION FOR THE PREVENTION OR THE TREATMENT OF VISUAL IMPAIRMENTS COMPRISING URSODEOXYCHOLIC ACID” (AMICOGEN PHARMA INC., priority 2017, published 2021).
“Also recorded” adds a separate entry of the source. Like-named read-outs stand apart in the source and are kept apart here.

What was measured:
[1] = cited from earlier work
[2] = crystalline form, cited from earlier work
[3] = cited from earlier work; remark: listed apart in the source
[4] = DMSO/PBS (pH 7.2) solution; cited from earlier work
[5] = tested on: laser-induced choroidal neovascularization (CNV); assay: Optical coherence tomography (OCT) in laser-induced CNV mouse model; type: in vivo, C57 BL/6 mice; settings: intravitreal injection, day 14 after laser injury, vs PBS
[6] = tested on: laser-induced choroidal neovascularization (CNV); assay: Fundus fluorescein angiography (FFA) in laser-induced CNV mouse model; type: in vivo, C57 BL/6 mice; settings: intravitreal injection 2 μl per eyeball, 14 days after laser injury, vs PBS
[7] = tested on: vascular endothelial growth factor (VEGF); assay: Western blot analysis of VEGF expression in the choroid and the retina; type: in vivo, C57 BL/6 mice; settings: intravitreal administration, day 15 after laser injury
[8] = tested on: function of the retina; set-up: species or system C57 BL/6 mice; settings: mouse, in vivo
Protocol: 5) After C57 BL/6 mice (Orient Bio, Korea) were acclimatized to be adapted to the environment for 1 week, 7-week old mice were treated with the image-guided laser (Phoenix, USA) especially optic nerve area at 3, 6, 9, and 12 o'clock positions. The laser was irradiated at 532 nm, 100 ms/70 ms, 200 mW, and a spot size was 50 μm.
The mice were dark adapted for 24 hours before test and all tests were performed in a darkroom. The eyes of mice were dilated and general anesthetized by intraperitoneal injection with a mixture of ketamine (30 mg/kg) and xylazine hydrochloride (2.5 mg/kg) in order to detect the function of the retina. Electrodes were placed in skin, tail and cornea to run electroretinography. […] The amplitude from the trough of A-wave to the peak of B-wave was measured and evaluated as an index of the function of the retina. […]
FIG. 9A-FIG. 9F are the test results that measured the response degree of retina to the white light after dark adaptation of group with intravitreal injection at day 15 after laser injury.
The dose of each individual was calculated based on the body weight measured immediately prior to administration and then orally administered using a disposable syringe equipped with sonde. […]
FIG. 14A-FIG. 14E are the test results that measured the response degree of retina to the white light after dark adaptation of group with oral administration at day 14 after laser injury.

[9] = tested on: wet (age-related) macular degeneration; settings: in vivo; cited from earlier work

Molecule: C[C@H](CCC(=O)O)[C@H]1CC[C@H]2[C@@H]3[C@@H](O)C[C@@H]4C[C@H](O)CC[C@]4(C)[C@H]3CC[C@]12C [UDCA, ursodeoxycholic acid]
- absorbed at the ileum of the colon by the active transport mechanism ([1]; oral tablet or capsule, crystalline form): up to 20 % of intakes
- absorbed along the jejunum and ileum by nonionic passive diffusion ([1]; oral tablet or capsule): 30-60%
- absorbed to the liver through the small intestine ([1]; taken orally): ≥ 95%
- acid dissociation constant, pKa [2]: about 5.0
- acid dissociation constant, pKa ([2]; listed as ursodeoxycholic acid): 5.1
- solubility in water [3]: 20 µg/mL
- solubility in water ([3]; protonated form): 53 µM

Molecule: C[C@H](CCC(=O)NCCS(=O)(=O)O)[C@H]1CC[C@H]2[C@@H]3[C@@H](O)C[C@@H]4C[C@H](O)CC[C@]4(C)[C@H]3CC[C@]12C [tUDCA, tauroursodeoxycholic acid]
- time the stability of the solution can be maintained [4]: about 1 day
- pH (strong acidity) [2]: ≤ 1
- solubility in water [3]: 200 µg/mL
- solubility ([3]; first dissolved in DMSO, then mixed with PBS (pH 7.2) 1:4): up to 200 mg/l

Molecule: Eylea®: conventional VEGF antibody drug, positive control, intravitreal injection
- size of CNV lesions (OCT) [5]: statistically significantly inhibited
- choroidal neovascularization (FFA, corrected total fluorescence) [6]: statistically significantly inhibited
- expression of VEGF in the choroid and the retina [7]: decreased; also recorded: less compared to that of YSB201
- ERG response [8]: increased

B1: Lucentis®: antibody drug inhibiting the activity of VEGF, intravitreal injection once every four weeks (antibody, chains of the INN, looked up, V domains shown)
VH: EVQLVESGGGLVQPGGSLRLSCAASGYDFTHYGMNWVRQAPGKGLEWVGWINTYTGEPTYAADFKRRFTFSLDTSKSTAYLQMNSLRAEDTAVYYCAKYPYYYGTSHWYFDVWGQGTLVTVSS
VL: DIQLTQSPSSLSASVGDRVTITCSASQDISNYLNWYQQKPGKAPKVLIYFTSSLHSGVPSRFSGSGSGTDFTLTISSLQPEDFATYYCQQYSTVPWTFGQGTKVEIK
modifications: Fab
- vision improvement rate [9]: 40%
- vision maintenance effect [9]: 90%
